Test results reported in US10947210B2 (priority 2015, dated 2021).
pIC50: −log10 of the molar value.

The compounds below were run against HCV RNA-dependent RNA polymerase (NS5B) (Hepatitis C virus genotype 1b (isolate BK) (HCV), UniProt P26663) (assay: RNA-Dependent RNA HCV NS5B (polymerase) Assay and IC50 Determination). Settings: purified HCV NS5B polymerase, polyA:U16 substrate, 32P-UTP incorporation; read-out: IC50.
Chain of HCV RNA-dependent RNA polymerase (NS5B) (P26663 2420-3010): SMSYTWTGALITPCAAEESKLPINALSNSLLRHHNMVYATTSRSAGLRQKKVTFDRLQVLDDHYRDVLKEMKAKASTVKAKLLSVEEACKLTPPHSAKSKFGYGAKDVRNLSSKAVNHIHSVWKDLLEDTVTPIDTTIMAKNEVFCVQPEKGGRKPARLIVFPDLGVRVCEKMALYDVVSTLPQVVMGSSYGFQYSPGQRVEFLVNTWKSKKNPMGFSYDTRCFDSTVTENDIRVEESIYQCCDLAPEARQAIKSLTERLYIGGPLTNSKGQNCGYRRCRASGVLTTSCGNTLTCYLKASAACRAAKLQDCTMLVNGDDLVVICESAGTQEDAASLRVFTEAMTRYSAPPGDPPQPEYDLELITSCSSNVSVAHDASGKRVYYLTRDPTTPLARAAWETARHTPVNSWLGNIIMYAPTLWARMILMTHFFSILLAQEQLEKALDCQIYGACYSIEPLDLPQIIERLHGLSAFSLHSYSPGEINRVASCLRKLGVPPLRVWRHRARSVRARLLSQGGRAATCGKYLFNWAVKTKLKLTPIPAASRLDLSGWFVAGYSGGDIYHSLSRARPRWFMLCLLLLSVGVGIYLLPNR
Assay type: biochemical
Description: RNA-Dependent RNA HCV NS5B (polymerase) Assay and IC50 Determination.
The reaction mixtures consisted of 50 mM Hepes-KOH, pH 7.5, 5 mM MgCl2, 5 mM DTT, 2% glycerol, 0.01% Triton® X-100, 0.5 uM polyA:U16 substrate, purified HCV RNA-dependent RNA polymerase, 10 μM UTP, and ^32P-UTP (Perkin Elmer). The reaction mixtures incubated at 30° C. for 60 minutes, and then filtered through Zeta probe membrane (BioRad). The filter was washed with 5×SSC (75 mM sodium citrate, pH 7 and 750 mM NaCl), and the radiolabeled RNA products were quantitated by microbeta (Perkin Elmer). For IC50 determination, different concentrations of inhibitors were added to the polymerase reaction mixtures, and incubated at 37° C. for 60 minutes. IC50 values were determined using GraFit (Erithaus software).
Table 1 presents IC50 data obtained using the biochemical assay to test representative compounds. Data are presented as follows: “+++” means <0.1 μM; “++” means ≥0.1 μM but <1.0 μM; “+” means ≥1.0 μM.
`CNC(=O)c1c(-c2ccc(F)cc2)oc2cc(N(CCOCCSC(C)=O)S(C)(=O)=O)c(C3CC3)cc12` [Compound 21-5, Thioacetic Acid S-[2-(2-{[5-cyclopropyl-2-(4-fluoro-phenyl)-3-methylcarbamoyl-benzofuran-6-yl]-methanesulfonyl-amino}-ethoxy)-ethyl] Ester] was tested, and the pIC50 was greater than 7.00.
For `CNC(=O)c1c(-c2ccc(F)cc2)oc2cc(N(CCOCCOCCOc3ccccc3C(=O)O)S(C)(=O)=O)c(C3CC3)cc12` [Compound 14-7A, 2-{2-[2-(2-{[5-Cyclopropyl-2-(4-fluoro-phenyl)-3-methylcarbamoyl-benzofuran-6-yl]-methanesulfonyl-amino}-ethoxy)-ethoxy]-ethoxy}-benzoic Acid], the pIC50 was greater than 7.00.
Work on `CNC(=O)c1c(-c2ccc(F)cc2)oc2cc(N(CCOCCOCCCc3ccccc3C(=O)O)S(C)(=O)=O)c(C3CC3)cc12` [Compound 12-7A, 2-{3-[2-(2-{[5-Cyclopropyl-2-(4-fluoro-phenyl)-3-methylcarbamoyl-benzofuran-6-yl]-methanesulfonyl-amino}-ethoxy)-ethoxy]-propyl}-benzoic Acid] yielded a pIC50 greater than 7.00.
For `CNC(=O)c1c(-c2ccc(F)cc2)oc2cc(N(CCOCCOCCc3ccc(C(=O)OC)cc3)S(C)(=O)=O)c(C3CC3)cc12` [Compound 11-5C, 4-{2-[2-(2-{[5-Cyclopropyl-2-(4-fluoro-phenyl)-3-methylcarbamoyl-benzofuran-6-yl]-methanesulfonyl-amino}-ethoxy)-ethoxy]-ethyl}-benzoic Acid Methyl Ester], the pIC50 was less than 6.00.
Compound `CNC(=O)c1c(-c2ccc(F)cc2)oc2cc(N(CCOCCCCCOCC(=O)O)S(C)(=O)=O)c(C3CC3)cc12` [Compound 27-9A, [5-(2-{[5-Cyclopropyl-2-(4-fluoro-phenyl)-3-methylcarbamoyl-benzofuran-6-yl]-methanesulfonyl-amino}-ethoxy)-pentyloxy]-acetic Acid] has a pIC50 of 6.00 to 7.00.
`CNC(=O)c1c(-c2ccc(F)cc2)oc2cc(N(CCOCCOCCOCCOCCOCCOCc3ccc(C(=O)O)cc3)S(C)(=O)=O)c(C3CC3)cc12` [Compound 30-13, 4-{2-[2-(2-{2-[2-(2-{[5-Cyclopropyl-2-(4-fluoro-phenyl)-3-methylcarbamoyl-benzofuran-6-yl]-methanesulfonyl-amino}-ethoxy)-ethoxy]-ethoxy}-ethoxy)-ethoxy]-ethoxymethyl}-benzoic acid] gave a pIC50 of less than 6.00.
With `CNC(=O)c1c(-c2ccc(F)cc2)oc2cc(N(CCOCCOCCOC(C(=O)NO)c3ccccc3)S(C)(=O)=O)c(C3CC3)cc12` (stereo not shown) [Compound 25-6, 5-Cyclopropyl-2-(4-fluoro-phenyl)-6-[(2-{2-[2-(hydroxycarbamoyl-phenyl-methoxy)-ethoxy]-ethoxy}-ethyl)-methanesulfonyl-amino]-benzofuran-3-carboxylic Acid Methylamide] the pIC50 was less than 6.00.
Compound `CNC(=O)c1c(-c2ccc(F)cc2)oc2cc(N(CCOCCOCc3ccnc(Cl)c3)S(C)(=O)=O)c(C3CC3)cc12` [Compound 19-8A, 6-({2-[2-(2-Chloro-pyridin-4-ylmethoxy)-ethoxy]-ethyl}-methanesulfonyl-amino)-5-cyclopropyl-2-(4-fluoro-phenyl)-benzofuran-3-carboxylic Acid Methylamide] has a pIC50 greater than 7.00.
With `CNC(=O)c1c(-c2ccc(F)cc2)oc2cc(N(CCOCCOCc3ccc(Cl)nc3)S(C)(=O)=O)c(C3CC3)cc12` [Compound 19-8B] the pIC50 was greater than 7.00.
In the case of `CNC(=O)c1c(-c2ccc(F)cc2)oc2cc(N(CCOCCOCc3ccc(OC)c(C(=O)OC)c3)S(C)(=O)=O)c(C3CC3)cc12` [Compound 30-11, 5-[2-(2-{[5-Cyclopropyl-2-(4-fluoro-phenyl)-3-methylcarbamoyl-benzofuran-6-yl]-methanesulfonyl-amino}-ethoxy)-ethoxymethyl]-2-methoxy-benzoic acid methyl ester], the pIC50 was less than 6.00.
In the case of `CNC(=O)c1c(-c2ccc(F)cc2)oc2cc(N(CCOCCOCc3ccc(C(C)=O)cc3)S(C)(=O)=O)c(C3CC3)cc12` [Compound 02-8F, 6-({2-[2-(4-Acetyl-benzyloxy)-ethoxy]-ethyl}-methanesulfonyl-amino)-5-cyclopropyl-2-(4-fluoro-phenyl)-benzofuran-3-carboxylic Acid Methylamide], the pIC50 was less than 6.00.
For `CNC(=O)c1c(-c2ccc(F)cc2)oc2cc(N(CCCCCOCc3ccc(C(=O)OC)cc3)S(C)(=O)=O)c(C3CC3)cc12` [Compound 16-6, 4-(5-{[5-Cyclopropyl-2-(4-fluoro-phenyl)-3-methylcarbamoyl-benzofuran-6-yl]-methanesulfonyl-amino}-pentyloxymethyl)-benzoic Acid Methyl Ester], the pIC50 was less than 6.00.
For `CNC(=O)c1c(-c2ccc(F)cc2)oc2cc(N(CCCCCOCCCCC(=O)O)S(C)(=O)=O)c(C3CC3)cc12` [Compound 28-8A, 5-((5-(N-(5-cyclopropyl-2-(4-fluorophenyl)-3-(methylcarbamoyl)benzofuran-6-yl)-methylsulfonamido)-pentyl)-oxy)-pentanoic Acid], the pIC50 was greater than 7.00.
Work on `CNC(=O)c1c(-c2ccc(F)cc2)oc2cc(N(CCOCCOCCCc3ccccc3C(=O)OC)S(C)(=O)=O)c(C3CC3)cc12` [Compound 12-6A, 2-{3-[2-(2-{[5-Cyclopropyl-2-(4-fluoro-phenyl)-3-methylcarbamoyl-benzofuran-6-yl]-methanesulfonyl-amino}-ethoxy)-ethoxy]-propyl}-benzoic Acid Methyl Ester] yielded a pIC50 of 6.00 to 7.00.
For `CNC(=O)c1c(-c2ccc(F)cc2)oc2cc(N(CCOCCCc3cccc(C(C)=O)c3)S(C)(=O)=O)c(C3CC3)cc12` [Compound 30-5, 6-({2-[3-(3-Acetyl-phenyl)-propoxy]-ethyl}-methanesulfonyl-amino)-5-cyclopropyl-2-(4-fluoro-phenyl)-benzofuran-3-carboxylic acid methylamide], the pIC50 was less than 6.00.
`CNC(=O)c1c(-c2ccc(F)cc2)oc2cc(N(CCOCCCCOc3cccc(C(=O)CC(=O)C(=O)O)c3)S(C)(=O)=O)c(C3CC3)cc12` [Compound 30-9, 4-{3-[4-(2-{[5-Cyclopropyl-2-(4-fluoro-phenyl)-3-methylcarbamoyl-benzofuran-6-yl]-methanesulfonyl-amino}-ethoxy)-butoxy]-phenyl}-2,4-dioxo-butyric acid] gave a pIC50 of less than 6.00.
Compound `CCOC(=O)c1ccc(OCCOCCOCCN(c2cc3oc(-c4ccc(F)cc4)c(C(=O)NC)c3cc2C2CC2)S(C)(=O)=O)cc1` [Compound 14-6C, 4-{2-[2-(2-{[5-Cyclopropyl-2-(4-fluoro-phenyl)-3-methylcarbamoyl-benzofuran-6-yl]-methanesulfonyl-amino}-ethoxy)-ethoxy]-ethoxy}-benzoic Acid Ethyl Ester] has a pIC50 of less than 6.00.
In the case of `CCOC(=O)c1cccc(OCCOCCOCCN(c2cc3oc(-c4ccc(F)cc4)c(C(=O)NC)c3cc2C2CC2)S(C)(=O)=O)c1` [Compound 14-6B, 3-{2-[2-(2-{[5-Cyclopropyl-2-(4-fluoro-phenyl)-3-methylcarbamoyl-benzofuran-6-yl]-methanesulfonyl-amino}-ethoxy)-ethoxy]-ethoxy}-benzoic Acid Ethyl Ester], the pIC50 was less than 6.00.
`CNC(=O)c1c(-c2ccc(F)cc2)oc2cc(N(CCOCCOCc3ccc(C(=O)O)c(C)c3)S(C)(=O)=O)c(C3CC3)cc12` [Compound 18-10A, 4-[2-(2-{[5-Cyclopropyl-2-(4-fluoro-phenyl)-3-methylcarbamoyl-benzofuran-6-yl]-methanesulfonyl-amino}-ethoxy)-ethoxymethyl]-2-methyl-benzoic Acid] showed a pIC50 of 6.00 to 7.00.
